This passage reports Kd results from ChEMBL document CHEMBL3991601, “The target landscape of clinical kinase drugs” (Science, 2017).

Assay [1] deals with T1, Septin-9 (Homo sapiens, UniProt Q9UHD8).
T1 sequence (Q9UHD8 whole entry): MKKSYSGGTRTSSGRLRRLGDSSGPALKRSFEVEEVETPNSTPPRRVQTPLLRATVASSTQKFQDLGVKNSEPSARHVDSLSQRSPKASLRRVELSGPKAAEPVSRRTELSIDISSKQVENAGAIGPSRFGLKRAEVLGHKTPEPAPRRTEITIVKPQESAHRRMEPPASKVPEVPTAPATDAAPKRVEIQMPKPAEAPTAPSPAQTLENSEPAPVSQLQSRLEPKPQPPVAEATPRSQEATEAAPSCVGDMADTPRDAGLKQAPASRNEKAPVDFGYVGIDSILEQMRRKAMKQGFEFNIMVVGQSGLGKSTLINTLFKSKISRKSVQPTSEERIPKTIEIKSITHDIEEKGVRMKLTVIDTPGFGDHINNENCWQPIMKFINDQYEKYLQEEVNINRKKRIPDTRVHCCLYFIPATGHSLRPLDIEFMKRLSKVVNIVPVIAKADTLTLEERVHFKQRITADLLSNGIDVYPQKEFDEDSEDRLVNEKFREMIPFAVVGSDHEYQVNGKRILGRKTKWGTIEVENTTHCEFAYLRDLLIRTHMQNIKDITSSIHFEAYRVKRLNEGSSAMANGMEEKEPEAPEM

The target of assay [2] is T2, Succinate--CoA ligase [ADP-forming] subunit beta, mitochondrial (Homo sapiens, UniProt Q9P2R7).
T2 sequence (Q9P2R7 whole entry): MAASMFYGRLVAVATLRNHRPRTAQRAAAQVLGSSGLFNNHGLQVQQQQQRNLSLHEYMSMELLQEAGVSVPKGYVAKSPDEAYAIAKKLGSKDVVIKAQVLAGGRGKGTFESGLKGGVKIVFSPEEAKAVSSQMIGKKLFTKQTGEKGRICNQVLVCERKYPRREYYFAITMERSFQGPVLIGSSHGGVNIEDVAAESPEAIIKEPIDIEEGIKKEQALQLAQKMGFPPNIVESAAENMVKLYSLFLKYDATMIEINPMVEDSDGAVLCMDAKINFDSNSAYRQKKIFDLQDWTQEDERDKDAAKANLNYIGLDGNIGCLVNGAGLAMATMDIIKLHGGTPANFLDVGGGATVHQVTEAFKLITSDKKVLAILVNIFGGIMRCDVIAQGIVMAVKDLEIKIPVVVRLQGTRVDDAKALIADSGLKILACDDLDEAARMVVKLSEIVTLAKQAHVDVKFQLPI

The target in assay [3] is T3, Breakpoint cluster region protein (Homo sapiens, UniProt P11274).
T3 sequence (P11274 whole entry): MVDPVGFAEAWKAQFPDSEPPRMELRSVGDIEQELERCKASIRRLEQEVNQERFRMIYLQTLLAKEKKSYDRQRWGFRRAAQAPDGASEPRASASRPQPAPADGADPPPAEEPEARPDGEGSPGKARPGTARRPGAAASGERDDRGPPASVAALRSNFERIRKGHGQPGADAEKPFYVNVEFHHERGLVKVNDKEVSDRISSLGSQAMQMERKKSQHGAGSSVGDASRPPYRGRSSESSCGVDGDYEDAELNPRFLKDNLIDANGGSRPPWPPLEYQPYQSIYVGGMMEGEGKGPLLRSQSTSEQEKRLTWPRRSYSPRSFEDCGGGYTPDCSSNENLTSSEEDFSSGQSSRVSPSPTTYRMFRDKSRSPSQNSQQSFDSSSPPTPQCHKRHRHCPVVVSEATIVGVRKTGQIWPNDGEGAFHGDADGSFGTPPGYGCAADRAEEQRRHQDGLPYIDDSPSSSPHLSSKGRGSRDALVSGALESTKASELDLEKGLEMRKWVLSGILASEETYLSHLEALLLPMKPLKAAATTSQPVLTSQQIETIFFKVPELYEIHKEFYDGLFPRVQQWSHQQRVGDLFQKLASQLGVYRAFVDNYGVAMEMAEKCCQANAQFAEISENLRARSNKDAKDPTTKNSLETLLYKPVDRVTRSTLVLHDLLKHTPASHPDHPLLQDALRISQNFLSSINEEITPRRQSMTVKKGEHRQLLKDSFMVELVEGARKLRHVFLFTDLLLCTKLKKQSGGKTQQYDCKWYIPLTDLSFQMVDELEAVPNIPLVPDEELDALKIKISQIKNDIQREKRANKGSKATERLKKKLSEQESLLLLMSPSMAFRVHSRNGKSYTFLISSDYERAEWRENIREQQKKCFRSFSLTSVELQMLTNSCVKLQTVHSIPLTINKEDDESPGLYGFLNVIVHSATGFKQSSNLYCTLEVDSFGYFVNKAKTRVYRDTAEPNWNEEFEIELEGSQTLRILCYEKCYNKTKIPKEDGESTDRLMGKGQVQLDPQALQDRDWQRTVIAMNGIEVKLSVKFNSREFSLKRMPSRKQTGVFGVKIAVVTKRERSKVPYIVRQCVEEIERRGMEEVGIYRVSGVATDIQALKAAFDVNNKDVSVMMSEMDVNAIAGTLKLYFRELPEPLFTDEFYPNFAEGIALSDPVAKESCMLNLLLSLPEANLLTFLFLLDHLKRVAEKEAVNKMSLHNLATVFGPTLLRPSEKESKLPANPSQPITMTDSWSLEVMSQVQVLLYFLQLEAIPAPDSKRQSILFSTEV

Counter-ions that a name gives are not always drawn. The source made the active and inactive calls.
Also: in the data inactive means no Kd found up to 30 µM.

`COc1c(OCCCN2CCOCC2)ccc2c1N=C(NC(=O)c1cnc(N)nc1)N1CCN=C21` [COPANLISIB]: the Kd in assay [1], in assay [2] and in assay [3] was > 30 µM (inactive) in each case.
Regarding `COCC(=O)NC/C=C/c1ccc2ncnc(Nc3ccc(Oc4ccc(C)nc4)c(C)c3)c2c1` [CP-724714], the Kd in assay [1], in assay [2] and in assay [3] was > 30 µM (inactive) throughout.
In the case of `CCS(=O)(=O)N1CCN(c2ccc(Nc3ncc(C(N)=O)c(NC4CC4)n3)cc2)CC1` [Cerdulatinib Hydrochloride], the Kd in assay [1], in assay [2] and in assay [3] was > 30 µM (inactive) each time.
In the case of `Cn1cc(C2=C(c3cn(C4CCN(Cc5ccccn5)CC4)c4ccccc34)C(=O)NC2=O)c2ccccc21` [ENZASTAURIN], the Kd in assay [1], in assay [2] and in assay [3] was > 30 µM (inactive) throughout.
On to `Cc1nc2cc(-n3ncc(C(=O)c4cc5ccccc5[nH]4)c3N)ccc2[nH]1` [FGFR INHIBITOR DEBIO 1347], for which the Kd in assay [1], in assay [2] and in assay [3] was > 30 µM (inactive) in each case.
As to `O=C(Nc1nc2cccc(-c3ccc(CN4CCS(=O)(=O)CC4)cc3)n2n1)C1CC1` [FILGOTINIB], the Kd in assay [1], in assay [2] and in assay [3] was > 30 µM (inactive) in each case.
Turning to `Cc1cccc(-c2nn3c(c2-c2ccnc4ccc(C(N)=O)cc24)CCC3)n1` [GALUNISERTIB], the Kd in assay [1], in assay [2] and in assay [3] was > 30 µM (inactive) each time.
As to `C[C@@H](Oc1cc(-n2cnc3ccc(CN4CCN(C)CC4)cc32)sc1C(N)=O)c1ccccc1C(F)(F)F` [GSK-461364], the Kd in assay [1], in assay [2] and in assay [3] was > 30 µM (inactive) throughout.
Consider `O=C(Nc1cc(C(F)(F)F)cc(C(F)(F)F)c1)c1cc(Cl)ccc1O` [IMD-0354], for which the Kd in assay [1], in assay [2] and in assay [3] was > 30 µM (inactive) in each case.
As for `CNC(=O)c1cccc2cc(Oc3ccnc4cc(OCC5(N)CC5)c(OC)cc34)ccc12` [LUCITANIB], the Kd in assay [1], in assay [2] and in assay [3] was > 30 µM (inactive) throughout.
`CNC(=O)c1nn(C)c2c1C(C)(C)Cc1cnc(Nc3ccc(N4CCN(C)CC4)cc3)nc1-2` [MILCICLIB]: the Kd in assay [1] was > 30 µM (inactive); in assay [2], > 30 µM (inactive); in assay [3], 0.685 µM (active).
For the compound `NC1(c2ccc(-c3nc4ccn5c(=O)[nH]nc5c4cc3-c3ccccc3)cc2)CCC1` [MK-2206], the Kd in assay [1], in assay [2] and in assay [3] was > 30 µM (inactive) each time.
`CN(C[C@@H]1COCCO1)S(=O)(=O)Nc1ccc2ccc3ncc(-c4cnn(C)c4)cc3c(=O)c2c1` [MK-2461]: the Kd in assay [1], in assay [2] and in assay [3] was > 30 µM (inactive) in each case.
Take `Cn1cc(-c2cnc3ccc4ccc(CS(=O)(=O)NCc5ccccn5)cc4c(=O)c3c2)cn1` [MK-8033]: the Kd in assay [1], in assay [2] and in assay [3] was > 30 µM (inactive) in each case.
For the compound `FC(F)(F)c1ccc(/C=C/c2nc(COc3ccc(CCCCn4ccnn4)cc3)co2)cc1` [MUBRITINIB], the Kd in assay [1], in assay [2] and in assay [3] was > 30 µM (inactive) in each case.
Take `COc1ncc(-c2ccc3nccc(-c4ccnnc4)c3c2)cc1NS(=O)(=O)c1ccc(F)cc1F` [OMIPALISIB]: the Kd in assay [1], in assay [2] and in assay [3] was > 30 µM (inactive) each time.
With `NC(=O)c1c(OCc2c(F)cc(Br)cc2F)nsc1NC(=O)NCCCCN1CCCC1` [OSI-632], the Kd in assay [1] is > 30 µM (inactive); in assay [2], > 30 µM (inactive); in assay [3] it was 2.6 µM (active).
With `CCOc1cc2ncc(C#N)c(Nc3ccc(F)c(Cl)c3)c2cc1NC(=O)/C=C/CN(C)C` [PELITINIB], the figures for the Kd in assay [1], in assay [2] and in assay [3] were > 30 µM (inactive), > 30 µM (inactive) and 1.19 µM (active), respectively.
In the case of `CCCCCCCCCCCCCCCCCCOP(=O)([O-])OC1CC[N+](C)(C)CC1` [PERIFOSINE], the Kd in assay [1], in assay [2] and in assay [3] was > 30 µM (inactive) each time.
`Cc1nc(Nc2n[nH]c3c2CN(C(=O)N[C@H](CN(C)C)c2ccccc2)C3(C)C)c2sccc2n1` [PF-03758309]: the Kd in assay [1] is > 30 µM (inactive); in assay [2] it was > 30 µM (inactive); in assay [3], 1.28 µM (active).
`CNC(=O)c1cc(Oc2ccc(NC(=O)Nc3cc(C(C)(C)C)nn3-c3ccc4ncccc4c3)c(F)c2)ccn1` [REBASTINIB]: the results for the Kd in assay [1], in assay [2] and in assay [3] were > 30 µM (inactive), > 30 µM (inactive) and 0.381 µM (active), respectively.
Take `N#CC1(c2ccc(NC(=O)c3cccnc3NCc3ccncc3)cc2)CCCC1` [RIVOCERANIB]: the Kd in assay [1], in assay [2] and in assay [3] was > 30 µM (inactive) each time.
As to `O=C(NOCCO)c1cc(CN2OCCCC2=O)c(F)c(F)c1Nc1ccc(I)cc1F` [RO-4987655], the Kd in assay [1], in assay [2] and in assay [3] was > 30 µM (inactive) each time.
With `N#CC[C@H](C1CCCC1)n1cc(-c2ncnc3[nH]ccc23)cn1` [RUXOLITINIB], the Kd in assay [1], in assay [2] and in assay [3] was > 30 µM (inactive) in each case.
With `O=c1[nH]ccc2cc(OC3CCNCC3)ccc12` [SAR-407899 FREE BASE], the Kd in assay [1], in assay [2] and in assay [3] was > 30 µM (inactive) in each case.
Consider `Cn1cc(-c2cnn3c(N)c(Br)c([C@@H]4CCCNC4)nc23)cn1` [SCH-900776], for which the Kd in assay [1], in assay [2] and in assay [3] was > 30 µM (inactive) throughout.
Regarding `CO[C@H]1C[C@@H]2CC[C@@H](C)[C@@](O)(O2)C(=O)C(=O)N2CCCC[C@H]2C(=O)O[C@H]([C@H](C)C[C@@H]2CC[C@@H](O)[C@H](OC)C2)CC(=O)[C@H](C)/C=C(\C)[C@@H](O)[C@@H](OC)C(=O)[C@H](C)C[C@H](C)/C=C/C=C/C=C/1C` [SIROLIMUS], the Kd in assay [1], in assay [2] and in assay [3] was > 30 µM (inactive) each time.
